Series [1] concerns the target T1, Cav3.2 T-type Ca2+ channels expressed in HEK cells (Homo sapiens, UniProt O95180).
T1 construct: expressed in transfected cells; host or cells: HEK cells
Put plainly: Cav3.2 voltage-clamp electrophysiological assay. The class given is cell-based. The note with it: Cav3.2 in HEK cells. The source says:
Prior to recording currents from Cav3.2 T-type Ca^2+ channels expressed in HEK cells, the culture media was replaced with extracellular solution (ECS) containing (in mM): 142 CsCl, 10 D-glucose, 2 CaCl2, 1 MgCl2, 10 HEPES, pH adjusted to 7.4 with CsOH. Borosilicate glass patch pipettes, pulled on a P-97 micropipette puller (Sutter Instruments, Novato, Calif.) with typical resistances of 2-4 MW, were backfilled with intracellular solution containing (in mM): 126.5 Cs-methanesulphonate, 2 MgCl2, 10 HEPES, 11 EGTA, 2 Na-ATP, pH adjusted to 7.3 CsOH. […] were recorded in the whole-cell configuration at room temperature (˜21° C.) using an Axopatch 200B (Molecular Devices, Sunnyvale, Calif.) patch-clamp amplifier. Recordings were low-pass filtered at 1 kHz (−3 dB 4-pole Bessel filter), digitized at 2 kHz with a Digidata 1322A interface (Molecular Devices), and acquired using pClamp 9.2 (Molecular Devices). No leak subtraction was used. Test compounds, prepared as 30 mM stock solutions in DMSO and diluted in extracellular buffer, were applied through a gravity driven multi-barrelled array of capillaries (24 gauge) connected to reservoirs controlled by solenoid valves. The effects of compounds on Cav3.2 slow and fast inactivation were evaluated using four different voltage protocols. The voltage dependence of fast and slow channel inactivation was examined using a two pulse protocol. Data were analyzed and fitted using OriginPro v.7.5 (OriginLab, Northampton, Mass.) software.

Series [2] in a line: Rat Early Pharmacokinetic (EPK) study. The class given is in vivo. The note with it: 3 mg/kg PO, PG (propylene glycol). The method, then:
Male Sprague-Dawley rats were dosed via oral (PO) gavage in the detailed formulation. Blood samples were collected from the animals at 6 timepoints out to 4 hours post-dose. Pharmacokinetic analysis was performed on the LC-MS/MS measured concentrations for each timepoint of each compound.

The next series deals with T2, human Nav1.5 channel (Homo sapiens, UniProt Q14524).
T2 construct: expressed in transfected cells; host or cells: HEK cells
Put plainly: Nav1.5 sodium channel screening assay (PatchXpress, cardiac action potential waveform). Format: cell-based. The method, then: Inhibition of the TTX-resistant Nav1.5 sodium channel, a key cardiac ion channel, can have profound effects on the duration and amplitude of the cardiac action potential and can result in arrhythmias and other heart malfunctions. To assess the potential cardiac liability of compounds at an early stage in the drug discovery process, a Nav1.5 sodium channel screening assay is performed on Molecular Device's PatchXpress™ automated electrophysiology platform. Under voltage-calmp conditions, Nav1.5 currents are recorded from HEK cells expressing the human Nav1.5 channel in the absence and presence of increasing concentrations of the test compound to obtain an IC50 value. The external recording solution contained (in mM): 90 TEACl, 50 NaCl, 1.8 CaCl, 1 MgCl2, 10 HEPES, 10 glucose, adjusted to pH 7.4 with TEA-OH and to 300 mOsm with sucrose (if necessary), while the internal patch pipette solution contained (in mM): 129 CsF, 2 MgCl2, 11 EGTA, 10 HEPES, 3 Na2ATP adjusted to pH 7.2 with CsOH and to 290 mOsm with sucrose (if necessary). Nav1.5 channel currents were evoked using a cardiac action potential waveform at 1 Hz, digitized at 31.25 kHz and low-pass filtered at 12 kHz.

Another series in a line: Mouse rotarod assay. The note with it: mouse, in vivo, mice. The class given is in vivo. The method, then:
To assess a compound's undesirable side effects (toxicity), animals were monitored for overt signs of impaired neurological or muscular function. In mice, the rotarod procedure (Dunham and Miya, J. Am. Pharmacol. Assoc. 46:208-209 (1957)) is used to disclose minimal muscular or neurological impairment (MMI). When a mouse is placed on a rod that rotates at a speed of 6 rpm, the animal can maintain its equilibrium for long periods of time. The animal is considered toxic if it falls off this rotating rod three times during a […].

Where [3] appears, read: voltage-dependence of half inactivation.

T1 sequence (O95180 whole entry): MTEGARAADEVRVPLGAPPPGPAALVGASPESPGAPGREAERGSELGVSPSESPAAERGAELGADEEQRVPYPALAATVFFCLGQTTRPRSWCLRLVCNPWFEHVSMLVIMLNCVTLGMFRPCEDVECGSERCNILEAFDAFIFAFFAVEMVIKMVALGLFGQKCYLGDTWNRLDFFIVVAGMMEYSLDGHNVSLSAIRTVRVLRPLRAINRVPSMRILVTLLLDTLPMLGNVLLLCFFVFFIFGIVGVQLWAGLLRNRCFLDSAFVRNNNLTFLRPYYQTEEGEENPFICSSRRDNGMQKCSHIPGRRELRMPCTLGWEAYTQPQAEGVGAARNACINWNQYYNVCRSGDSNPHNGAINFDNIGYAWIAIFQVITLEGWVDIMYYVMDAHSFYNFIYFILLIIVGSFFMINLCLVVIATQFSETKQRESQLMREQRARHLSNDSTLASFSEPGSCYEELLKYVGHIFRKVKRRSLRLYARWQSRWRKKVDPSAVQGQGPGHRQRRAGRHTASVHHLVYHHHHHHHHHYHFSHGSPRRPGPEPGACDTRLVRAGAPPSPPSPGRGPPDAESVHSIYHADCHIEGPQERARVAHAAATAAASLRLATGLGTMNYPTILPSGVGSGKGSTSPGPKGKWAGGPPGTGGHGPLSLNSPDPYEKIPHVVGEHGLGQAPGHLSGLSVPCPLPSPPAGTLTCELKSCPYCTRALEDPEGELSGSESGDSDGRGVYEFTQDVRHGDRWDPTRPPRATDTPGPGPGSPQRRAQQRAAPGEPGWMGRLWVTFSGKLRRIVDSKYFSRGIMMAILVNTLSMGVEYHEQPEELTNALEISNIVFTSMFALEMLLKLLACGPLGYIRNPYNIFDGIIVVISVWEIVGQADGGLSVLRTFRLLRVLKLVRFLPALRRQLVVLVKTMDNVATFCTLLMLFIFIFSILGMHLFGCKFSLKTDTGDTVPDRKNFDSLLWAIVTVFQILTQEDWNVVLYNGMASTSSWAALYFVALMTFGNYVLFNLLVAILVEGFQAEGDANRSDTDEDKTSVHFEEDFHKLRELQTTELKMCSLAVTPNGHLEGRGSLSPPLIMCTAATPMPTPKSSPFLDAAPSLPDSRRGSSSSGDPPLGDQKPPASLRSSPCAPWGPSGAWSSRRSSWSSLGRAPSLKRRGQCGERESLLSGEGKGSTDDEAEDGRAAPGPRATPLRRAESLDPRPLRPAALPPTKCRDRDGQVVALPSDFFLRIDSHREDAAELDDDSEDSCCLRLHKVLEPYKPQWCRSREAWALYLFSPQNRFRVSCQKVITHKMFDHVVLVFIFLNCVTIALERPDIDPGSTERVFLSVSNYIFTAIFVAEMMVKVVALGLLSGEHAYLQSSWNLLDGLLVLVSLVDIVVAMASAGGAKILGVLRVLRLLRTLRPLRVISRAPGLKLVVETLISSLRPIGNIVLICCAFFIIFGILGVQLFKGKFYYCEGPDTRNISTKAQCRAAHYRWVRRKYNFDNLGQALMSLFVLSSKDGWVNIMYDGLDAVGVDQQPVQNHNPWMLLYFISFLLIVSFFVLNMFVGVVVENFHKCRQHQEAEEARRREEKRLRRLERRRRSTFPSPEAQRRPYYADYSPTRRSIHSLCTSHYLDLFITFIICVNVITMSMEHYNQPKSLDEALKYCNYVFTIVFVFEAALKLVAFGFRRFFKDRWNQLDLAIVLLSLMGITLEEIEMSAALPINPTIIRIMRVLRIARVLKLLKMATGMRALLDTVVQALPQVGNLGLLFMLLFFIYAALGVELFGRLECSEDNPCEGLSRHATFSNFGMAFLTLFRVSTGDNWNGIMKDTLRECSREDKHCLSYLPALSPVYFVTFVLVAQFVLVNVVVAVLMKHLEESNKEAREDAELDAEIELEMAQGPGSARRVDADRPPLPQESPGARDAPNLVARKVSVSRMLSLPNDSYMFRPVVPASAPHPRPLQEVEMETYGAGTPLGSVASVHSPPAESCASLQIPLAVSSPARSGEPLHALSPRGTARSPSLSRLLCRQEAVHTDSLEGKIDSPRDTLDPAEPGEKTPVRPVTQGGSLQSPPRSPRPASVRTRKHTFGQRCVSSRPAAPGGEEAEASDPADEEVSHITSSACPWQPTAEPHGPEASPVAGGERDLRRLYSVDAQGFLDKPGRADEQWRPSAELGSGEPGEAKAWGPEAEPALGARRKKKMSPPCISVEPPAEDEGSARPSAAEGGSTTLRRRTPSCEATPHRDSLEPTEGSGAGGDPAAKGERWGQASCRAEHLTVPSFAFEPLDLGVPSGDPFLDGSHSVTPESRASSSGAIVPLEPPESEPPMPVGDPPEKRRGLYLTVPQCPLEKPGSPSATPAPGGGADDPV
T2 sequence (Q14524 whole entry): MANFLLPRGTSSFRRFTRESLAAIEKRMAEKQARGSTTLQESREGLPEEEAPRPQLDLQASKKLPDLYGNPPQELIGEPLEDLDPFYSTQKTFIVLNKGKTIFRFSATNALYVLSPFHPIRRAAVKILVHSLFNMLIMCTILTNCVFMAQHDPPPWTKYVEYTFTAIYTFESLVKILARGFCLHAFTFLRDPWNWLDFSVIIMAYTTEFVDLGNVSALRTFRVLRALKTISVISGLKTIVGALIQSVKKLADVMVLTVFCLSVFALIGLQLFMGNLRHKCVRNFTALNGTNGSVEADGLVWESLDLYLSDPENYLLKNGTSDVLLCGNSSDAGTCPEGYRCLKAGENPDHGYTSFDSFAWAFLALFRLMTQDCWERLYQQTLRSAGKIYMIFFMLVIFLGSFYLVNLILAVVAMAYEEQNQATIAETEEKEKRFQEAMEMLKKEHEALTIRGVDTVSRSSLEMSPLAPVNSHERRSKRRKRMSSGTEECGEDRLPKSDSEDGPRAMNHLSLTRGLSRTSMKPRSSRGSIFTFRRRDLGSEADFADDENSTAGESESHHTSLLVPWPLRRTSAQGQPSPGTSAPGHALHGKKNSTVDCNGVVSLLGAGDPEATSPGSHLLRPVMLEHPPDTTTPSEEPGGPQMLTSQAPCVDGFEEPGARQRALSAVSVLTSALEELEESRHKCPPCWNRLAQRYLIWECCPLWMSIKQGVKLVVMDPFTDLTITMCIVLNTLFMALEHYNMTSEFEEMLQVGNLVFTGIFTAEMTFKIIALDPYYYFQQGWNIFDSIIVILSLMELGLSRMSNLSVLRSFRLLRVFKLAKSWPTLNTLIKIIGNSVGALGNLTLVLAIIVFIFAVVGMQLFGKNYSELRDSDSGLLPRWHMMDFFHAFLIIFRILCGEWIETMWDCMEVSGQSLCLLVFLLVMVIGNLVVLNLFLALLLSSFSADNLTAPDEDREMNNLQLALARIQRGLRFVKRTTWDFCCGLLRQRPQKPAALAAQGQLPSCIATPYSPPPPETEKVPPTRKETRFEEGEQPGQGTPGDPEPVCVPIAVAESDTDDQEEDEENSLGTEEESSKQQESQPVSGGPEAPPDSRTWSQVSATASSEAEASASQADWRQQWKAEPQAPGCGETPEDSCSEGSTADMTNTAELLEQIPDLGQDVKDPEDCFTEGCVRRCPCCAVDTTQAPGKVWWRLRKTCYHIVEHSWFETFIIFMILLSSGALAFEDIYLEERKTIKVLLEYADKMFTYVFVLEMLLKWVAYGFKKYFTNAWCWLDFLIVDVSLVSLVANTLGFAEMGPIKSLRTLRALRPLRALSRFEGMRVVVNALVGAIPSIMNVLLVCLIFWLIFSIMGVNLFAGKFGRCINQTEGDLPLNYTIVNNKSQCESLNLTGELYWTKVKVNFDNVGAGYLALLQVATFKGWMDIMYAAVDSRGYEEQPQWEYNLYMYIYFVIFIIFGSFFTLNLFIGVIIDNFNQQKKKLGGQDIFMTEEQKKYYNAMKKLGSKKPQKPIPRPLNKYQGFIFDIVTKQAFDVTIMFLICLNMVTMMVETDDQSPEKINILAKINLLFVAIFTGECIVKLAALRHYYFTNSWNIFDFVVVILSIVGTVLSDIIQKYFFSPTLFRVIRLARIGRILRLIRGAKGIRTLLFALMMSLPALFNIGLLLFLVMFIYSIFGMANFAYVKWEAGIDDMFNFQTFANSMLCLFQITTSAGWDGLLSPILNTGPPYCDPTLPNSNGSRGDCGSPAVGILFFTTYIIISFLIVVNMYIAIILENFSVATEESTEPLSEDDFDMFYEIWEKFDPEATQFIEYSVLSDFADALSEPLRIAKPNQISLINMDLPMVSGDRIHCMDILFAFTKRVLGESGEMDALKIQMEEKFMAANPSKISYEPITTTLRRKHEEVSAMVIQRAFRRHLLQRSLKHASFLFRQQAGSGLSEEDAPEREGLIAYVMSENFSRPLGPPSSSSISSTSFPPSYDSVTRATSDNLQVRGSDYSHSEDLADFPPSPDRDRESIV

Turning to `O=C1CN(C(=O)CC(c2ccc(Cl)cc2)c2ccc(Cl)cc2)CCN1` [Compound 3, 4-(3,3-bis(4-chlorophenyl)propanoyl)piperazin-2-one], in series [1], the “τ recovery from fast inactivation (ms)” value is given as “*512 ms”, the “τ recovery from slow inactivation (ms)” value is given as “*903 ms” and the “Fraction of current recovered at 5.1 s interval” value is 0.91. Further, the “Fraction current remaining at −40 mV” value in series [1] (at −40 mV) is “*0.40”. For the same compound, in series [1] (setting [3]), the “V1/2 fast inactivation (mV)” value is −64 mV and the “V1/2 slow inactivation (mV)” value was −78 mV.

Consider `O=C1CN(C(=O)CC(c2ccccc2)c2ccccc2)CCN1` [Compound 4, 4-(3,3-diphenylpropanoyl)piperazin-2-one], for which, in series [2], the “Dose Normalized AUC” value is 522 nM·h and the “Dose Normalized Cmax” value is recorded as 832 nM. Also, the time to peak (Tmax) in series [2] (male, Sprague-Dawley, blood) was determined as 15 min. In series [1], the “τ recovery from slow inactivation” value came to 495 ms and the “Fraction of current recovered at 5.1 s interval” value was 0.98. Further, on human Nav1.5 channel (HEK cells expressing human Nav1.5), the “Inhibition of the cardiac Nav 1.5 channel (statement)” value is on record as “did not act as inhibitors”. Besides, on human Nav1.5 channel (cardiac action potential waveform at 1 Hz, read-out: HNAV 1.5 CARDIAC AP 1 Hz IC50), the concentration for half-maximal inhibition (IC50) was not below 300 µM. The compound also yielded a TD50 in “Mouse rotarod assay” of 370 mg/kg.

As a reminder, the Tmax is the time from dosing to the highest level. A word on the IC50: it is the concentration that inhibits the measured activity by half. What is called TD50 is the dose at which the toxic effect under study appears in half of the subjects.

The values are drawn from patent US8629149B2, “Oxopiperazine derivatives for the treatment of pain and epilepsy” (Zalicus Pharmaceuticals Ltd., priority 2009, dated 2014).
